Results as given in US20230227466A1, “SUBSTITUTED THIENOPYRIMIDINES THAT INTERACT WITH THE RAS SUPERFAMILY FOR THE TREATMENT OF CANCERS, INFLAMMATORY DISEASES, RASOPATHIES, AND FIBROTIC DISEASE” (SHY Therapeutics, LLC, priority 2020, published 2023).
Where two headings read alike, the source gives them in different places.

Key:
[1] = tested on: ERK1/2 phosphorylation in Panc-1 cells; assay: Western ERK1/2 cell-based phosphorylation assay; parameters: species or system human; details: at 10 μM, values in brackets < > are activation %, not inhibition
Experimental: Cell lines: Human tumor-derived pancreatic cancer cell line Panc-1 was purchased from American Type Culture Collection and grown in complete DMEM-High Glucose, supplemented with penicillin (100 U/mL), streptomycin (100 μg/mL), and 10% heat-inactivated FBS at 37° C. in a humidified incubator with 5% CO2.
Method: Cells were plated at 350000 cells/well density in a 12-well plate, allowed 3 hours to adhere to the plate, then starved in the appropriate medium in the presence of 0.5% FBS overnight. The small molecules to be tested were added to the cells in the final concentration of 10 μM in the presence of 0.3% DMSO for 6 hours incubation at 37° C. For IC50 value determination, serial dilutions of compounds were added to cells under the same conditions. Next, cells were stimulated with 1.5 ng/ml EGF for 15 minutes then cells were lysed with lysis buffer containing 1% Triton X-100, EDTA, and Halt™ Protease & Phosphatase Inhibitor Cocktail (Thermo Scientific). Protein concentration was assessed by BCA protein assay (Thermo Scientific). Phosphorylation level of ERK1/2 was determined by western blot.
Western blot protocol: Equal amounts of protein (15-50 μg) were separated by SDS-PAGE and transferred to nitrocellulose membranes (Invitrogen by Thermo Fisher Scientific). The membrane was stained with Ponceau S Stain (Boston BioProducts) to verify uniform protein loading. Membranes were blocked with 10% milk and phosphorylation levels of ERK1/2 were assessed by incubating overnight at 4° C. with anti-phospho-p44/42 (Thr202/Tyr204) antibody (Cell Signaling) followed by HRP-conjugated secondary antibody (Jackson Immunoresearch, West Grove, Pa.). Bands were incubated in Amersham ECL Prime Western Blotting Detection Reagent (GE Healthcare) and visualized using the ChemiDoc MP imaging system (Bio-Rad). Protocol for Western AKT cell-based phosphorylation assay

[2] = target: T1, KRas Q61H mutant (Homo sapiens, UniProt P01116, Q61H); assay: Ras GTP binding domain inhibition assay (labeled-GTP competition, cell-free)
T1 construct: made in house
Procedure, shortened: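 His-tagged GTPases were coated at 10-30 μg/mL onto nickel plates overnight at 4° C, then exposed to compound (20 μM, or serial dilutions for IC50) in buffer with 1% DMSO for 3 h at room temperature, with or without 10-30 μg/mL His-Sos (556-1049) in the final hour. Cy3- or Cy5-GTP (100 nM, 45 min) binding was measured after washing.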

[3] = with SOS, read-out: KRas Q61H mutant + SOS: % inh.
[4] = without SOS, read-out: KRas Q61H mutant: % inh.

| Structure (SMILES) | inhibition at 20 µM [2, 3] [%] | inhibition at 20 µM [2, 4] [%] | IC50 ([2]; with SOS) [µM] | % inh of ERK1/2 phosphorylation in PANC-1 [1] |
| --- | --- | --- | --- | --- |
| COC1CCCN(c2nc(-c3nccn3C)nc3sc(-c4ccn(C(C)C)n4)c(C(F)(F)F)c23)C1 (racemic) [Compound 75, Rac-6-(1-Isopropyl-1H-pyrazol-3-yl)-4-(3-methoxypiperidin-1-yl)-2-(1-methyl-1H-imidazol-2-yl)-5-(trifluoromethyl)thieno[2,3-d]pyrimidine] | 26 to 50 | 51 to 75 |  | D (76-100% inhibition) |
| COCC1CCN(c2nc(-c3nccn3C)nc3sc(-c4ccn(C(C)C)n4)c(-c4ccccc4)c23)C1 (racemic) [Compound 76, Rac-6-(1-isopropyl-1H-pyrazol-3-yl)-4-(3-(methoxymethyl)pyrrolidin-1-yl)-2-(1-methyl-1H-imidazol-2-yl)-5-phenylthieno[2,3-d]pyrimidine] | 51 to 75 | 26 to 50 |  | D (76-100% inhibition) |
| COC1CCCN(c2nc(-c3nccn3C)nc3sc(-c4ccn(C(C)C)n4)c(-c4ccccc4)c23)C1 (racemic) [Compound 77, Rac-6-(1-isopropyl-1H-pyrazol-3-yl)-4-(3-methoxypiperidin-1-yl)-2-(1-methyl-1H-imidazol-2-yl)-5-phenylthieno[2,3-d]pyrimidine] | 26 to 50 | 1 to 25 |  | B (26-50% inhibition) |
| CO[C@H]1CC[C@@H](Nc2nc(-c3nccn3C)nc3sc(-c4cc[nH]n4)c(-c4ccccc4)c23)C1 (racemic) [Example 1, Rac-N-((1R,3S)-3-methoxycyclopentyl)-2-(1-methyl-1H-imidazol-2-yl)-5-phenyl-6-(1H-pyrazol-3-yl)thieno[2,3-d]pyrimidin-4-amine] | 1 to 25 | 1 to 25 | > 10 | 0 (0% inhibition) |
| COCCn1ccnc1-c1nc(N[C@H]2C[C@@H](OC)C2)c2c(-c3ccccc3)c(-c3ccn(C)n3)sc2n1 [Compound 7, N-((1s,3s)-3-Methoxycyclobutyl)-2-(1-(2-methoxyethyl)-1H-imidazol-2-yl)-6-(1-methyl-1H-pyrazol-3-yl)-5-phenylthieno[2,3-d]pyrimidin-4-amine] | 76 to 100 | 76 to 100 | 1 to 4.99 | D (76-100% inhibition) |
| COCCn1ccnc1-c1nc(N[C@H]2C[C@@H](OC)C2)c2ccsc2n1 [Compound 9, N-((1s,3s)-3-Methoxycyclobutyl)-2-(1-(2-methoxyethyl)-1H-imidazol-2-yl)thieno[2,3-d]pyrimidin-4-amine] | 76 to 100 | 76 to 100 | 5 to 10 | 0 (0% inhibition) |
| NC(=O)c1nc(O)c2scc(-c3ccccn3)c2n1 [Compound 18, 4-Hydroxy-7-(pyridin-2-yl)thieno[3,2-d]pyrimidine-2-carboxamide] | 26 to 50 | 26 to 50 | > 10 | 0 (0% inhibition) |
| O=C(c1nc(O)c2scc(-c3ccccn3)c2n1)N1CCCC1 [Compound 19, (4-Hydroxy-7-(pyridin-2-yl)thieno[3,2-d]pyrimidin-2-yl)(pyrrolidin-1-yl)methanone] | 1 to 25 | 1 to 25 | > 10 | 0 (0% inhibition) |
| O=C(c1nc(O)c2scc(-c3ccccn3)c2n1)N1CCOCC1 [Compound 22, (4-Hydroxy-7-(pyridin-2-yl)thieno[3,2-d]pyrimidin-2-yl)(morpholino)methanone] | 1 to 25 | 1 to 25 | > 10 | 0 (0% inhibition) |
| O=C(Nc1ccccn1)c1nc(O)c2scc(-c3ccccn3)c2n1 [Compound 24, 4-Hydroxy-N,7-di(pyridin-2-yl)thieno[3,2-d]pyrimidine-2-carboxamide] | 0 | 1 to 25 | > 10 | 0 (0% inhibition) |
| Cc1sc2c(O)nc(-c3ccccn3)nc2c1-c1ccccn1 [Compound 26, 6-Methyl-2,7-di(pyridin-2-yl)thieno[3,2-d]pyrimidin-4-ol] | 76 to 100 | 76 to 100 | 5 to 10 | 0 (0% inhibition) |
| CO[C@H]1CN(c2nc(-c3nccn3C)nc3sc(-c4ccn(C(C)C)n4)c(C)c23)C[C@H]1OC [Compound 39, rac-4-((3S,4R)-3,4-Dimethoxypyrrolidin-1-yl)-6-(1-isopropyl-1H-pyrazol-3-yl)-5-methyl-2-(1-methyl-1H-imidazol-2-yl)thieno[2,3-d]pyrimidine] | 76 to 100 | 51 to 75 |  | 0 (0% inhibition) |

Continued, in another order:

| inhibition at 20 µM [2, 3] [%] | inhibition at 20 µM [2, 4] [%] | IC50 ([2]; with SOS) [µM] | Structure (SMILES) | % inh of ERK1/2 phosphorylation in PANC-1 [1] |
| --- | --- | --- | --- | --- |
| 51 to 75 | 51 to 75 |  | COCC1CCN(c2nc(-c3nccn3C)nc3sc(-c4ccn(C(C)C)n4)c(C(F)(F)F)c23)C1 (racemic) [Compound 74, Rac-6-(1-Isopropyl-1H-pyrazol-3-yl)-4-(3-(methoxymethyl)pyrrolidin-1-yl)-2-(1-methyl-1H-imidazol-2-yl)-5-(trifluoromethyl)thieno[2,3-d]pyrimidine] | D (76-100% inhibition) |
| 76 to 100 | 26 to 50 | 1 to 4.99 | CO[C@H]1CC[C@@H](Nc2nc(-c3nccn3C)nc3sc(-c4ccn(C(C)C)n4)c(-c4ccccc4)c23)C1 [Compound 5, 6-(1-Isopropyl-1H-pyrazol-3-yl)-N-((1R,3S)-3-methoxycyclopentyl)-2-(1-methyl-1H-imidazol-2-yl)-5-phenylthieno[2,3-d]pyrimidin-4-amine] | D (76-100% inhibition) |
| 26 to 50 | 26 to 50 | > 10 | CC(C)NC(=O)c1nc(O)c2scc(-c3ccccn3)c2n1 [Compound 20, 4-Hydroxy-N-isopropyl-7-(pyridin-2-yl)thieno[3,2-d]pyrimidine-2-carboxamide] | 0 (0% inhibition) |
| 26 to 50 | 26 to 50 | > 10 | COCCNC(=O)c1nc(O)c2scc(-c3ccccn3)c2n1 [Compound 21, 4-Hydroxy-N-(2-methoxyethyl)-7-(pyridin-2-yl)thieno[3,2-d]pyrimidine-2-carboxamide] | 0 (0% inhibition) |
| 1 to 25 | 0 | > 10 | O=C(Nc1ccccc1)c1nc(O)c2scc(-c3ccccn3)c2n1 [Compound 23, 4-Hydroxy-N-phenyl-7-(pyridin-2-yl)thieno[3,2-d]pyrimidine-2-carboxamide] | 0 (0% inhibition) |
| 76 to 100 | 51 to 75 | 1 to 4.99 | Cn1ccnc1-c1nc(O)c2scc(-c3ncccc3F)c2n1 [Compound 30, 7-(3-Fluoropyridin-2-yl)-2-(1-methyl-1H-imidazol-2-yl)thieno[3,2-d]pyrimidin-4-ol] | 0 (0% inhibition) |
| 76 to 100 | 26 to 50 | 1 to 4.99 | CO[C@@H]1CC[C@H](Nc2nc(-c3nccn3C)nc3sc(-c4ccn(C(C)C)n4)c(C)c23)C1 [Compound 31, 6-(1-Isopropyl-1H-pyrazol-3-yl)-N-((1S,3R)-3-methoxycyclopentyl)-5-methyl-2-(1-methyl-1H-imidazol-2-yl)thieno[2,3-d]pyrimidin-4-amine] | D (76-100% inhibition) |
| 76 to 100 | 51 to 75 | 1 to 4.99 | CO[C@H]1CC[C@@H](Nc2nc(-c3nccn3C)nc3sc(-c4ccn(C(C)C)n4)c(C)c23)C1 [Compound 32, 6-(1-Isopropyl-1H-pyrazol-3-yl)-N-((1R,3S)-3-methoxycyclopentyl)-5-methyl-2-(1-methyl-1H-imidazol-2-yl)thieno[2,3-d]pyrimidin-4-amine] | D (76-100% inhibition) |
| 76 to 100 | 76 to 100 |  | COCCNc1nc(-c2nccn2C)nc2sc(-c3ccn(C(C)C)n3)c(C)c12 [Compound 35, 6-(1-Isopropyl-1H-pyrazol-3-yl)-N-(2-methoxyethyl)-5-methyl-2-(1-methyl-1H-imidazol-2-yl)thieno[2,3-d]pyrimidin-4-amine] | 0 (0% inhibition) |
